# From ChEMBL document CHEMBL1158480, “In silico prediction of volume of distribution in human using linear and nonlinear models on a 669 compound data set” (J Med Chem, 2009)
# Assays:
# [1] = Volume of distribution at steady state in human; conditions: in vivo
# [2] = Clearance in human at 200 ug; assay type: ADME, organism-based; conditions: in vivo
# [3] = Volume of distribution at steady state in human at 1 mg/kg; assay type: ADME, organism-based; set-up: dose 1 mg/kg; conditions: in vivo, read-out: Vdss
# [4] = Volume of distribution at steady state in human at 5 mg, iv; assay type: ADME, organism-based; conditions: in vivo, read-out: Vdss
# [5] = Volume of distribution at steady state in human at 0.1 mg/kg administered 15 mins infusion; assay type: ADME, organism-based; set-up: dose 0.1 mg/kg; conditions: in vivo, iv, read-out: Vdss
# [6] = Total clearance in human at 0.1 mg/kg administered 15 mins infusion; assay type: ADME, organism-based; set-up: dose 0.1 mg/kg; conditions: in vivo, iv
# [7] = Volume of distribution at steady state in human at 130 mg administered 90 mins infusion; assay type: ADME, organism-based; conditions: in vivo, iv, read-out: Vdss
# [8] = Volume of distribution at steady state in human administered three sequential 4-h infusion at 1, 5 and 15 mg/hr; assay type: ADME, organism-based; conditions: in vivo, iv, read-out: Vdss
# [9] = Volume of distribution at steady state in human at 1 mg/kg, iv administered 20 mins infusion; assay type: ADME, organism-based; set-up: dose 1 mg/kg, route intravenous; conditions: in vivo, read-out: Vdss
# [10] = Volume of distribution at steady state in human at 100 mg, iv; assay type: ADME, organism-based; conditions: in vivo, read-out: Vdss
# [11] = Volume of distribution at steady state in human administered 1 to 12 g doses with 2 to 3.5 hrs iv infusion; assay type: ADME, organism-based; conditions: in vivo, read-out: Vdss
# [12] = Volume of distribution at steady state in human at 25 mg, iv; assay type: ADME, organism-based; conditions: in vivo, read-out: Vdss
# [13] = Volume of distribution at steady state in human at 15 ng/kg/min, iv administered 150 mins infusion; assay type: ADME, organism-based; conditions: in vivo, read-out: Vdss
# [14] = Volume of distribution at steady state in human at 150 mg, iv; assay type: ADME, organism-based; conditions: in vivo, read-out: Vdss
# [15] = Clearance in human administered three way cross over study in 11, 10 and 12 healthy subjects at 5, 10, 15 mg dose respectively as 1 hr infusion; assay type: ADME, organism-based; conditions: in vivo, intravenous
# [16] = Half life in human given 31 administration across 6 doses 2.5 to 25 mg administered 30 mins infusion each dose separated by 13 days; assay type: ADME, organism-based; conditions: in vivo, iv
# [17] = Mean residence time in human given 31 administration across 6 doses 2.5 to 25 mg administered 30 mins infusion each dose separated by 13 days; assay type: ADME, organism-based; conditions: in vivo, iv
# [18] = Clearance in human given 31 administration across 6 doses 2.5 to 25 mg administered 30 mins infusion each dose separated by 13 days; assay type: ADME, organism-based; conditions: in vivo, iv
# [19] = Mean residence time in human administered three way cross over study in 11, 10 and 12 healthy subjects at 5, 10, 15 mg dose respectively as 1 hr infusion; assay type: ADME, organism-based; conditions: in vivo, intravenous
# [20] = Half life in human administered three way cross over study in 11, 10 and 12 healthy subjects at 5, 10, 15 mg dose respectively as 1 hr infusion; assay type: ADME, organism-based; conditions: in vivo, intravenous
# [21] = Volume of distribution at steady state in human at 50 mg, iv; assay type: ADME, organism-based; conditions: in vivo, read-out: Vdss
# [22] = Volume of distribution at steady state in human at 0.2 mg, iv; assay type: ADME, organism-based; conditions: in vivo, read-out: Vdss
# [23] = Volume of distribution at steady state in human dosed 1 hr iv infusion; conditions: in vivo
# [24] = Volume of distribution in human at 100 mg administered 30 mins infusion; assay type: ADME, organism-based; conditions: in vivo, iv
# [25] = Volume of distribution at steady state in human at 2.8 mg, iv; assay type: ADME, organism-based; conditions: in vivo, read-out: Vdss
# [26] = Volume of distribution at steady state in human at 2.5 mg, iv administered as bolus dose; assay type: ADME, organism-based; conditions: in vivo, read-out: Vdss
# [27] = Volume of distribution at steady state in human at 0.149 mg/kg, iv; assay type: ADME, organism-based; set-up: dose 0.149 mg/kg, route intravenous; conditions: in vivo, read-out: Vdss
# [28] = Volume of distribution at steady state in human at 10 mg, iv; assay type: ADME, organism-based; conditions: in vivo, read-out: Vdss
# [29] = Half life in human at 2 mg, iv; assay type: ADME, organism-based; conditions: in vivo
# [30] = Mean residence time in human at 2 mg, iv; assay type: ADME, organism-based; conditions: in vivo
# [31] = Clearance in human at 2 mg, iv; assay type: ADME, organism-based; conditions: in vivo
smiles,measurement,setting,value
CC(=O)Nc1ccc(C2=NNC(=O)C[C@H]2C)cc1,Vd,[1],2.38 L/kg
same,clearance,[2],33.3 mL/min
CC(C)(N)CC(=O)N[C@@H]1CCc2ccccc2N(Cc2ccc(-c3ccccc3-c3nnn[nH]3)cc2)C1=O,Vd,[3],0.2 L/kg
Cc1nc2sccn2c(=O)c1CCN1CCC(=C(c2ccc(F)cc2)c2ccc(F)cc2)CC1 [RITANSERIN],Vd,[4],1.41 L/kg
Cc1nccn1CCC(C(N)=O)(c1ccccc1)c1ccccc1 [IMIDAFENACIN],Vd,[5],1.51 L/kg
same,clearance,[6],492 mL/min
O=C(O)c1ccc(-n2nc(-c3ccccc3O)nc2-c2ccccc2O)cc1 [DEFERASIROX],Vd,[7],0.2 L/kg
COc1ccccc1Oc1c(NS(=O)(=O)c2ccc(C)cn2)nc(-c2ccnc(-c3nnn[nH]3)c2)nc1OCCO [CLAZOSENTAN],Vd,[8],0.23 L/kg
CC(=O)N(CCC(CCN1CCCCC1)(C(N)=O)c1ccccc1Cl)C(C)C (stereo not drawn) [BIDISOMIDE],Vd,[9],2.6 L/kg
O=C(O)CCCCO/N=C(/c1cccnc1)c1cccc(C(F)(F)F)c1 [RIDOGREL],Vd,[10],0.43 L/kg
Nc1ccn([C@@H]2O[C@H](CO)[C@@H](O)[C@@H]2O)c(=O)n1 [CYTARABINE],Vd,[11],0.67 L/kg
CC(=O)CC(c1ccc([N+](=O)[O-])cc1)c1c(O)c2ccccc2oc1=O (stereo not drawn) [ACENOCOUMAROL],Vd,[12],0.24 L/kg
CCCCC[C@H](O)CC[C@@H]1[C@H]2Cc3cccc(OCC(=O)O)c3C[C@H]2C[C@H]1O [TREPROSTINIL],Vd,[13],0.23 L/kg
COCCOC[C@H](CC1(C(=O)N[C@H]2CC[C@@H](C(=O)O)CC2)CCCC1)C(=O)O [CANDOXATRILAT],Vd,[14],0.25 L/kg
CN(c1nc2ccccc2s1)C1CCN(C[C@H](O)COc2ccc(F)c(F)c2)CC1 [LUBELUZOLE],clearance,[15],1.8 mL/min/kg
same,half-life,[16],19.8 h
same,MRT,[17],23.3 h
same,clearance,[18],1.54 mL/min/kg
same,MRT,[19],28.7 h
same,half-life,[20],23.5 h
COC(=O)c1cnc2n1CCc1ccccc1C2=C1CCN(CCc2ccc(OCc3ccc4ccccc4n3)cc2)CC1,Vd,[21],6.03 L/kg
C[C@@H]1CN([C@H]2CC[C@](C#N)(c3ccc(F)cc3)CC2)CC[C@]1(C(=O)O)c1ccccc1 [LEVOCABASTINE],Vd,[22],1.17 L/kg
C[C@@H]1[C@H](O)[C@@H](C)/C=C/C=C/C=C/C=C/C=C/C=C/C=C/[C@H](O[C@@H]2O[C@H](C)[C@@H](O)[C@H](N)[C@@H]2O)C[C@@H]2O[C@](O)(C[C@@H](O)C[C@@H](O)[C@H](O)CC[C@@H](O)C[C@@H](O)CC(=O)O[C@H]1C)C[C@H](O)[C@H]2C(=O)O [AMPHOTERICIN B],Vd,[1],0.62 L/kg
C[C@]12CC[C@@H]3c4ccc(O)cc4C[C@@H](CCCCCCCCC[S+]([O-])CCCC(F)(F)C(F)(F)F)[C@H]3[C@@H]1CC[C@@H]2O (stereo partly drawn) [FULVESTRANT],Vd at 1 h,[23],4.15 L/kg
CC1(C)[C@@H](O[C@H]2O[C@H](C(=O)O)[C@@H](O)[C@H](O)[C@H]2O[C@H]2O[C@@H](C(=O)O)[C@H](O)[C@@H](O)[C@@H]2O)CC[C@]2(C)[C@H]3C(=O)C=C4[C@@H]5C[C@@](C)(C(=O)O)CC[C@]5(C)CC[C@@]4(C)[C@]3(C)CC[C@@H]12 [ISOGLYCIRRHIZINATE],Vd,[24],0.05 L/kg
CC(C)Oc1ccccc1N1CCN(Cc2cccc(C(=O)N3CCCCC3)c2)CC1 [MAZAPERTINE],Vd,[25],1.54 L/kg
OCCN1CCN(CCCN2c3ccccc3Sc3ccc(C(F)(F)F)cc32)CC1 [FLUPHENAZINE],Vd,[26],2.9 L/kg
Cc1nc(=O)c(C#N)c(NCc2cccnc2)[nH]1 [PELRINONE],Vd,[27],0.39 L/kg
CN(c1nc2ccccc2s1)C1CCN(CC(O)COc2ccc(F)cc2)CC1 (stereo not drawn) [SABELUZOLE],Vd,[28],5.5 L/kg
CCc1nc2c(N)nc3ccccc3c2n1CCCCNS(C)(=O)=O [CPG-52852],half-life,[29],7.1 h
same,MRT,[30],4.7 h
same,clearance,[31],7.7 mL/min/kg
CO[C@H]1C[C@H](O[C@H]2[C@H](C)[C@@H](O[C@@H]3O[C@H](C)C[C@H](N(C)C)[C@H]3O)[C@@H](C)C[C@@]3(CO3)C(=O)[C@H](C)[C@@H](O)[C@@H](C)[C@@H](C)OC(=O)[C@@H]2C)O[C@@H](C)[C@@H]1O [OLEANDOMYCIN],Vd,[1],0.77 L/kg
